# Measurements as given in PubChem BioAssay (NCI).
# “And” between values parts separate entries of the source, which are not always exact repeats. Equal values may be shown once.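 Protocol summary: plate cells (96-well), add compound at 5 concentrations, incubate 48 h, interpolate endpoints linearly. At the GI50, growth is halved. TGI denotes the concentration required for complete inhibition of growth.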
# What was measured:
# Assay in all cases: growth of human tumour cells (NCI), 48 h
# UACC-62 melanoma = test system: UACC-62 melanoma
# U251 CNS = test system: U251 CNS
# LOX IMVI melanoma = test system: LOX IMVI melanoma
# SF-539 CNS = test system: SF-539 CNS
# SW-620 colon = test system: SW-620 colon
# MALME-3M melanoma = test system: MALME-3M melanoma
# MDA-MB-231 breast = test system: MDA-MB-231 breast
# A549 NSCLC = test system: A549 NSCLC
# HOP-92 NSCLC = test system: HOP-92 NSCLC
# M14 melanoma = test system: M14 melanoma
SMILES,GI50 (UACC-62 melanoma),TGI (UACC-62 melanoma),GI50 (U251 CNS),TGI (U251 CNS),GI50 (LOX IMVI melanoma),TGI (LOX IMVI melanoma),GI50 (SF-539 CNS),TGI (SF-539 CNS),GI50 (SW-620 colon),TGI (SW-620 colon),GI50 (MALME-3M melanoma),TGI (MALME-3M melanoma),GI50 (MDA-MB-231 breast),TGI (MDA-MB-231 breast),GI50 (A549 NSCLC),TGI (A549 NSCLC),GI50 (HOP-92 NSCLC),TGI (HOP-92 NSCLC),GI50 (M14 melanoma),TGI (M14 melanoma)
CC(C)CC(CC1=CCC2CC1C2(C)C)C1=C(O)C(C)(C)C(=O)C(C)(C)C1=O (stereo not given),0.266 µM,1.17 µM,0.335 µM,> 100 µM,0.336 µM,10.7 µM,0.357 µM,> 100 µM,0.4 µM,> 100 µM,0.295 µM,1.13 µM,0.247 µM,0.717 µM,0.359 µM,> 100 µM,0.191 µM,0.499 µM,0.404 µM,5.86 µM
N#C/C(=C\c1c(-c2ccccc2)[nH]c2ccccc12)S(=O)(=O)c1ccccc1,2.38 µM,24.9 µM,2.49 µM,20.1 µM,4.47 µM,25.5 µM,2.48 µM,9.51 µM,0.544 µM,20.5 µM,6.77 µM,> 55.8 µM,3.55 µM,33.7 µM,3.74 µM,> 100 µM,8.88 µM,69.8 µM,2.66 µM,38.2 µM
COC(=O)Cn1c2c(c3c(O)cccc31)C(=O)c1ccccc1-2,> 100 µM,> 100 µM,79.2 µM,> 100 µM,> 100 µM,> 100 µM,> 100 µM,> 100 µM,> 100 µM,> 100 µM,> 100 µM,> 100 µM,40.4 µM,> 100 µM,> 100 µM,> 100 µM,27 µM,> 100 µM,> 100 µM,> 100 µM
COc1cc2nc(N3CCCC3)nc(NCC3CCCCC3)c2cc1OC,1.74 µM,3.21 µM,1.21 µM,2.64 µM,0.281 µM,0.793 µM,0.817 µM,2.15 µM,1.39 µM,2.89 µM,1.24 µM,2.55 µM,1.53 µM,3.04 µM,1.52 µM,3.25 µM,1.11 µM,2.46 µM,1.44 µM,2.88 µM
CN(C)CCCN1c2ccccc2CCc2ccc(Cl)cc21,1.61 µM,3.31 µM,3.8 µM,14.7 µM,2.31 µM,8.16 µM,5.59 µM,17.7 µM,3.92 µM,16 µM,2.03 µM,3.99 µM,3.06 µM,12 µM,9.27 µM,23.2 µM,1.44 µM,6.8 µM,1.83 µM,3.35 µM
CC1=C(CCC(C)N(C)Cc2ccc(OCCCN3CCCC3)cc2)C(C)(C)CCC1 (stereo not given),2.11 µM,4.17 µM,2.46 µM,6.38 µM,1.66 µM,3.18 µM,1.66 µM,3.28 µM,3.01 µM,10.8 µM,1.67 µM,3.23 µM,1.89 µM,4.48 µM,6.48 µM,20.5 µM,2.83 µM,13.1 µM,1.75 µM,3.7 µM
Cc1ccc(C2=NOC3=c4ccccc4=CSC3=C2c2ccc([N+](=O)[O-])cc2)cc1,14.5 µM,31.3 µM,10.3 µM,36.1 µM,16.2 µM,53.8 µM,7.18 µM,25.4 µM,62.3 µM,> 100 µM,17.7 µM,89.5 µM,8.59 µM,28 µM,24.5 µM,> 100 µM,18 µM,68.2 µM,18.6 µM,> 100 µM
O=S(=O)(NCCNC/C=C/c1ccc(Br)cc1)c1cccc2cnccc12,9.35 µM and 14.5 µM,22.2 µM and 30.2 µM,9.55 µM and 13.8 µM,23.9 µM and 26.7 µM,7.64 µM and 12.1 µM,25.6 µM and 25.2 µM,7.74 µM and 9.35 µM,21.9 µM and 22.6 µM,12.6 µM and 16.8 µM,27.6 µM and 32.4 µM,7.39 µM and 12.7 µM,23 µM and 26.9 µM,8.1 µM and 14.2 µM,21.7 µM and 29.7 µM,11.3 µM and 13.6 µM,24.9 µM and 27.4 µM,1.59 µM and 2.8 µM,9.81 µM and 11.8 µM,12.8 µM and 15.3 µM,26.4 µM and 30.9 µM
CC(C)(C)c1ccc(OCCCCCCN2CCNCC2)cc1,2.33 µM,5.77 µM,3.32 µM,13.2 µM,1.83 µM,3.66 µM,5.98 µM,20.6 µM,2.14 µM,5.19 µM,3.27 µM,13.1 µM,2.53 µM,7.97 µM,6.95 µM,21.2 µM,3.31 µM,19.7 µM,3.22 µM,13.5 µM
CC(CN1CCN(CCOCCO)CC1)CN1c2ccccc2Sc2ccc(Cl)cc21 (stereo not given),1.75 µM,3.44 µM,2.19 µM,6.04 µM,1.74 µM,3.27 µM,2.52 µM,6.94 µM,1.84 µM,3.58 µM,1.75 µM,3.45 µM,1.86 µM,4.79 µM,3.05 µM,12.4 µM,1.01 µM,4.63 µM,1.85 µM,3.46 µM
COc1ccc(-c2cc(-c3ccccc3)nc(SCCCC(=O)NO)n2)cc1,0.756 µM,2.53 µM,1.12 µM,4.22 µM,0.24 µM,1.95 µM,1.47 µM,4.32 µM,0.484 µM,4.85 µM,1 µM,4.82 µM,1.57 µM,6.1 µM,1.74 µM,8.45 µM,1.71 µM,5.42 µM,0.894 µM,3.92 µM
O[C@H]1CO[C@H]2[C@@H]1OC[C@@H]2Oc1ccc(Nc2ccnc(Nc3ccc(O[C@H]4CO[C@H]5[C@@H]4OC[C@@H]5O)c(Cl)c3)n2)cc1Cl,1.11 µM,2.75 µM,1.62 µM,4.02 µM,1.26 µM,3.18 µM,2.22 µM,7.16 µM,2.36 µM,6.86 µM,1.09 µM,3.09 µM,1.81 µM,6.04 µM,2.84 µM,11.5 µM,1.52 µM,3.15 µM,1.48 µM,4.18 µM
